The numbers were not newly measured in patent US20140302138A1, “EXTENDED RELEASE PHARMACEUTICAL COMPOSITIONS CONTAINING CARBAMAZEPINE” (priority 2011, published 2014), which cites them from elsewhere.

For the compound `NC(=O)N1c2ccccc2C=Cc2ccccc21` [Carbamazepine, 5H-dibenzo[b,f]azepine-5-carboxamide], the solubility in acetone entry (acetone) is given as “soluble”. The solubility in alcohol result (alcohol) was “soluble”. Further, the solubility in water result (water) was “practically insoluble”.
